Measurements as given in ChEMBL document CHEMBL6103654, “Design, Biological Characterization, and Discovery of Capromorelin Derivatives as Oral Growth Hormone Secretagogue Receptor Type 1a Agonist for the Treatment of Growth Hormone Deficiency” (J Med Chem, 2025).
Active and inactive are the calls of the source. The calls are words filed in the database; no cut-off is given here.

Columns and labels:
Rattus norvegicus [1] = test: In vivo agonist activity at GSHR in Sprague-Dawley rat assessed as increase in body weight at 10 to 100 mg/kg, po administered once daily for 14 days; format: functional, organism-based; details: dose 10-100 mg/kg, time 14.0 day
[2] = Cmax in male Sprague-Dawley rat at 2 mg/kg, po administered as single dose measured after 4 hrs; format: ADME, organism-based; details: in vivo
[3] = Metabolic stability in dog liver microsome assessed as hepatic clearance at 1 uM measured upto 60 mins in presence of NADPH by LC-MS/MS analysis; format: ADME, Canis lupus familiaris; details: liver microsomes, read-out: CLH
[4] = Clearance in male Sprague-Dawley rat plasma at 1 mg/kg, iv administered as single dose measured after 4 hrs; format: ADME, organism-based
Rattus norvegicus [5] = test: Induction of growth hormone level in 6 week-old male Sprague-Dawley rat assessed as increase in body weight at 2.5 mg/kg, po measured after 10 days; format: functional, organism-based; details: time 10.0 day
[6] = Metabolic stability in dog liver microsome assessed as intrinsic clearance at 1 uM measured upto 60 mins in presence of NADPH by LC-MS/MS analysis; format: ADME, Canis lupus familiaris; details: liver microsomes, read-out: CLH
[7] = Toxicity in Sprague-Dawley rat liver assessed as change in central veins at 10 to 100 mg/kg, po administered once daily for 14 days; format: organism-based; details: in vivo, 336 h, dose 10-100 mg/kg, time 14 day
Rattus norvegicus [8] = test: Induction of growth hormone level in adult Sprague-Dawley rat blood at 0.2 mg/kg, po administered as single dose measured after 10 mins by ELISA method (reference value: 13.7+/-7.2 ng/mL); format: functional
Rattus norvegicus [9] = test: Induction of growth hormone level in 4 week-old female Sprague-Dawley rat assessed as increase in body weight at 2.5 mg/kg, po measured after 10 days; format: functional, organism-based; details: time 10.0 day
[10] = Metabolic stability in mouse liver microsome assessed as hepatic clearance at 1 uM measured upto 60 mins in presence of NADPH by LC-MS/MS analysis; format: ADME; details: liver microsomes, read-out: CLH
[11] = biological target: Growth hormone secretagogue receptor type 1 (Rattus norvegicus, UniProt O08725); test: Agonist activity at rat GHSR expressed in CHO cells incubated for 60 min by FLIPR assay; format: functional, cell-based
Sequence of Growth hormone secretagogue receptor type 1 (O08725 whole entry): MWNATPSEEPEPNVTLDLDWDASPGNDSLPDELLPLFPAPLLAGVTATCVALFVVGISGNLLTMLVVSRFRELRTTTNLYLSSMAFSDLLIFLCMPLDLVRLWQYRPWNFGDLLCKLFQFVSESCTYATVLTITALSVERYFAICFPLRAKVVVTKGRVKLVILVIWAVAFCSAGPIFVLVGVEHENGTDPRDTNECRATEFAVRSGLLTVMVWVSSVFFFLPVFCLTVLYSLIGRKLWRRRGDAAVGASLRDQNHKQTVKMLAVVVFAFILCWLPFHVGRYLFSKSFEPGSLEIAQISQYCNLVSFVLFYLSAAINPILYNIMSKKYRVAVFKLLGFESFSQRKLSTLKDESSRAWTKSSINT

Rattus norvegicus [12] = test: Induction of growth hormone level in 4 week-old male Sprague-Dawley rat assessed as increase in body weight at 2.5 mg/kg, po measured after 10 days; format: functional, organism-based; details: time 10.0 day
[13] = Volume of distribution in male mouse at 1 mg/kg, iv administered as single dose measured after 4 hrs; format: ADME, organism-based; details: in vivo
[14] = Metabolic stability in monkey liver microsome assessed as half life at 1 uM measured upto 60 mins in presence of NADPH by LC-MS/MS analysis; format: ADME, Macaca mulatta; details: rhesus monkey, liver microsomes
Cytochrome P450 2D6 = Cytochrome P450 2D6 (Homo sapiens, UniProt P10635); test: Inhibition of CYP2D6 in human liver microsome incubated for 5 min in presence of NADPH by UPLC-MS/MS analysis; format: ADME, microsomes
Sequence of Cytochrome P450 2D6 (P10635 whole entry): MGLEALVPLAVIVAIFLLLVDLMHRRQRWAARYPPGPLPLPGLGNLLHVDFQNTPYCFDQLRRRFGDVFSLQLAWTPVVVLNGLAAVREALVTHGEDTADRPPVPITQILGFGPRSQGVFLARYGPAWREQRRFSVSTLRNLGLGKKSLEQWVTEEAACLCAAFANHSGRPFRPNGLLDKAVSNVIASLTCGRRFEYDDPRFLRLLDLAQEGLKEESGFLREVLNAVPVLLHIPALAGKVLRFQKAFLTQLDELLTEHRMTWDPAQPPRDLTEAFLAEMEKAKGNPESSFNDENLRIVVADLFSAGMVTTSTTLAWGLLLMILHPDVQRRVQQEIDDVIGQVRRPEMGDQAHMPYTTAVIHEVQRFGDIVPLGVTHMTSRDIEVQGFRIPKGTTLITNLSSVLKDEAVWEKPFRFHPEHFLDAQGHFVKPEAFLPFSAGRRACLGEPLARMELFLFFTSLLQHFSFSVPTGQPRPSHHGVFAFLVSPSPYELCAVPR

[15] = Metabolic stability in rat liver microsome assessed as half life at 1 uM measured upto 60 mins in presence of NADPH by LC-MS/MS analysis; format: ADME; details: liver microsomes
[16] = AUC in male monkey at 2 mg/kg, po administered as single dose measured after 4 hrs; format: ADME, organism-based, Macaca mulatta; details: rhesus monkey, in vivo
[17] = Oral bioavailability in male Sprague-Dawley rat at 2 mg/kg administered as single dose measured after 4 hrs; format: ADME, organism-based; details: in vivo
Rattus norvegicus [18] = test: Induction of growth hormone level in adult Sprague-Dawley rat blood at 0.5 mg/kg, po administered as single dose measured after 10 mins by ELISA method (reference value: 13.7+/-7.2 ng/mL); format: functional
CHO [19] = test: Agonist activity at monkey GHSR expressed in CHO cells at maximum concentration incubated for 60 min by FLIPR assay relative to control; format: cell-based; details: Macaca mulatta, filed as agonist
Rattus norvegicus [20] = test: Induction of growth hormone level in Juvenile Sprague-Dawley rat blood at 0.2 mg/kg, po administered as single dose measured after 10 mins by ELISA method (reference value: 23.2+/-5.6 ng/mL); format: functional
[21] = AUC in male dog at 2 mg/kg, po administered as single dose measured after 4 hrs; format: ADME, organism-based, Canis lupus familiaris; details: in vivo
Rattus norvegicus [22] = test: Induction of growth hormone level in adult Sprague-Dawley rat blood at 0.5 mg/kg, po administered as single dose measured after 20 mins by ELISA method (reference value: 4.9+/-1.1 ng/mL); format: functional
Rattus norvegicus [23] = test: Induction of growth hormone level in Juvenile Sprague-Dawley rat blood at 0.5 mg/kg, po administered as single dose measured after 1 hr by ELISA method (reference value: 45.2+/-12.5 ng/mL); format: functional
Rattus norvegicus [24] = test: Induction of growth hormone level in Juvenile Sprague-Dawley rat blood at 0.1 mg/kg, po administered as single dose measured after 40 mins by ELISA method (reference value: 40.1+/-11.0 ng/mL); format: functional
[25] = Cmax in male dog at 2 mg/kg, po administered as single dose measured after 4 hrs; format: ADME, organism-based, Canis lupus familiaris; details: in vivo
[26] = Agonist activity at monkey GHSR expressed in CHO cells incubated for 60 min by FLIPR assay; format: cell-based; details: Macaca mulatta, 1 h
[27] = Cmax in male monkey at 2 mg/kg, po administered as single dose measured after 4 hrs; format: ADME, organism-based, Macaca mulatta; details: rhesus monkey, in vivo
[28] = Plasma protein binding in rat assessed as unbound fraction measured after 6 hrs by dialysis method; format: ADME, cell-free
[29] = biological target: Voltage-gated inwardly rectifying potassium channel KCNH2 (Homo sapiens, UniProt Q12809); test: Inhibition of human ERG expressed in HEK293 cells by patch clamp assay; format: toxicity, cell-based
Sequence of Voltage-gated inwardly rectifying potassium channel KCNH2 (Q12809 whole entry): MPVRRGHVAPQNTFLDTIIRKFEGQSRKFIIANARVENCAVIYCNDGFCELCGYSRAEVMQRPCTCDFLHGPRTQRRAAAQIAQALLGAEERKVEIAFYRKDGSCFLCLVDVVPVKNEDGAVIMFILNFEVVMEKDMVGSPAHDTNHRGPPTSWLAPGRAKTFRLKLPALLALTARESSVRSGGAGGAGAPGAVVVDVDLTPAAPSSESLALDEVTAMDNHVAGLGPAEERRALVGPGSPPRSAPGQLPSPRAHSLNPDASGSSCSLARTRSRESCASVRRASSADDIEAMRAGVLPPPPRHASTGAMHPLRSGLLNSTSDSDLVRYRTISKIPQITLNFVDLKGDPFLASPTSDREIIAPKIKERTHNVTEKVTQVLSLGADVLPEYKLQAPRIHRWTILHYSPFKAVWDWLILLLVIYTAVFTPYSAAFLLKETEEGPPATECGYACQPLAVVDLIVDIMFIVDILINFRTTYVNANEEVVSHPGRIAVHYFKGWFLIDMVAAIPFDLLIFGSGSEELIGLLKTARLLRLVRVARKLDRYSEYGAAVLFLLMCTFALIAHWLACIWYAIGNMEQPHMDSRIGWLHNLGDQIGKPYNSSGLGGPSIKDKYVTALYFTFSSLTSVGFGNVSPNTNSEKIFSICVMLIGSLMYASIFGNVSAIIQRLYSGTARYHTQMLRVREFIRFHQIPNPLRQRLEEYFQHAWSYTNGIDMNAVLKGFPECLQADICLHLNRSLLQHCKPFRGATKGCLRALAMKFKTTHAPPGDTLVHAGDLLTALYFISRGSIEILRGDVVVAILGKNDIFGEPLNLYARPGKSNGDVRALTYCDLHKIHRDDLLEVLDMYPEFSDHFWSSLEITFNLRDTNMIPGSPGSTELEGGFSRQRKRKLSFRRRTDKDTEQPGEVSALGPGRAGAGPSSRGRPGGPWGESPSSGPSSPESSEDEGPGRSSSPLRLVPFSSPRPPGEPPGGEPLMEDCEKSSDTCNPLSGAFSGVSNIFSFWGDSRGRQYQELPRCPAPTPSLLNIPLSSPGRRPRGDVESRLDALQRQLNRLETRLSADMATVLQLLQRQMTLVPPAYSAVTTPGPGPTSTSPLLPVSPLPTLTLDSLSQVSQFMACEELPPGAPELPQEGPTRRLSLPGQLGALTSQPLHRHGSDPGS

Rattus norvegicus [30] = test: In vivo agonist activity at GSHR in Sprague-Dawley rat assessed as increase in food consumption at 10 to 100 mg/kg, po administered once daily for 14 days; format: functional, organism-based; details: dose 10-100 mg/kg, time 14.0 day
[31] = Clearance in male mouse plasma at 1 mg/kg, iv administered as single dose measured after 4 hrs; format: ADME, organism-based
[32] = Tmax in male monkey at 2 mg/kg, po administered as single dose measured after 4 hrs; format: ADME, organism-based, Macaca mulatta; details: rhesus monkey, in vivo
CHO [33] = test: Agonist activity at dog GHSR expressed in CHO cells at maximum concentration incubated for 60 min by FLIPR assay relative to control; format: cell-based; details: Canis lupus familiaris, filed as agonist
[34] = Tmax in male dog at 2 mg/kg, po administered as single dose measured after 4 hrs; format: ADME, organism-based, Canis lupus familiaris; details: in vivo
Rattus norvegicus [35] = test: Induction of growth hormone level in adult Sprague-Dawley rat blood by measuring AUC(0 to 40 mins) at 0.1 mg/kg, po administered as single dose by ELISA method (reference value: 7.0+/-1.7 ng/mL); format: functional, organism-based
Rattus norvegicus [36] = test: Induction of growth hormone level in Juvenile Sprague-Dawley rat blood at 0.5 mg/kg, po administered as single dose measured after 2 hrs by ELISA method (reference value: 26.5+/-7.3 ng/mL); format: functional
[37] = Metabolic stability in dog liver microsome assessed as half life at 1 uM measured upto 60 mins in presence of NADPH by LC-MS/MS analysis; format: ADME, Canis lupus familiaris; details: liver microsomes
Rattus norvegicus [38] = test: Induction of growth hormone level in 6 week-old male Sprague-Dawley rat assessed as increase in body length at 2.5 mg/kg, po measured after 10 days; format: functional, organism-based; details: time 10.0 day
[39] = Half life in male mouse at 2 mg/kg, po administered as single dose measured after 4 hrs; format: ADME, organism-based; details: in vivo

In the case of CC(C)(N)C(=O)N[C@H](COCc1ccccc1)C(=O)N1CCC2=NN(C3CC3)C(=O)[C@]2(Cc2ccccc2)C1, the Activity (Rattus norvegicus [1]) is reported as “Active”, the Cmax [2] is reported as 156 ng/mL and the CLint scaled at 1 µM [3] is reported as 237 mL/min/kg. For the same molecule, the clearance [4] was 28.9 mL/min/kg, the Activity (Rattus norvegicus [5]) was “Active” and the microsomal CLint at 1 µM [6] was 134 µL/min/mg. For the same molecule, the Activity [7] was “Non-toxic”, the Activity (Rattus norvegicus [8]) was 228.6 ng/mL and the Activity (Rattus norvegicus [9]) was “Active”. The CLint scaled at 1 µM [10] was 1370 mL/min/kg, the EC50 [11] was 7 pM and the Activity (Rattus norvegicus [12]) was “Active”. It also gave a Vd [13] of 2.94 L/kg, a half-life at 1 µM [14] of 3.1 min and an IC50 (Cytochrome P450 2D6) of over 30 µM. The half-life at 1 µM [15] was 9.9 min, the AUC [16] was 75.13 ng·h/mL and the bioavailability [17] was 16.7%. For the same molecule, the Activity (Rattus norvegicus [18]) was 238.6 ng/mL, the Activity (CHO [19]) was 106% and the Activity (Rattus norvegicus [20]) was 200.8 ng/mL. The AUC at 4 h [21] was 406 ng·h/mL, the Activity (Rattus norvegicus [22]) was 68.8 ng/mL and the Activity (Rattus norvegicus [23]) was 27.2 ng/mL. The Activity (Rattus norvegicus [24]) was 74.5 ng/mL, the Cmax [25] was 200 ng/mL and the EC50 [26] was 0.046 nM. It also gave a Cmax [27] of 43.4 ng/mL, a fraction unbound at 6 h [28] of 0.673 and an IC50 [29] of over 30 µM. The Activity (Rattus norvegicus [30]) was “Active”, the clearance [31] was 124 mL/min/kg and the Tmax [32] was 1.33 h. For the same molecule, the Activity (CHO [33]) was 124%, the Tmax [34] was 25.2 min and the AUC (Rattus norvegicus [35]) was 61 ng·h/mL. The Activity (Rattus norvegicus [36]) was 34.4 ng/mL, the half-life at 1 µM [37] was 10.3 min and the Activity (Rattus norvegicus [38]) was “Active”. The half-life [39] was 91.2 min.
